What follows are molecules tested against T1, SARS-CoV-2 3CL^pro (Severe acute respiratory syndrome coronavirus 2, UniProt P0DTD1) (assay: FRET assay, fluorogenic peptide cleavage). Settings: not given.
Type: biochemical

SMILES	IC50 [µM]
O=C(O)c1cc(O)c2c(c1)C(=O)c1cccc(O)c1C2=O [compound 3, rhein]	4.6
Cc1c(C(=O)O)c(O)cc2c1C(=O)c1c(O)cccc1C2=O [compound 10, 3,8-dihydroxy-1-methylanthraquinone-2-carboxylic acid]	37.2

What follows are molecules tested against T1, SARS-CoV-2 3CL^pro (assay: FRET assay, fluorogenic peptide cleavage). Settings: read-out: % inhibition at 100 μmol/L.
Type: biochemical

SMILES	inhibition at 100 µM [%]
COc1c(O)cc(C(=O)O)cc1O [M42M2, 4-O-methylgallic acid]	< 50
O=C1c2cccc(O)c2C(=O)c2c(O)cc(CO)cc21 [compound 11, aloe-emodin]	< 50
O=C(O)c1cc(O)c(O)c(O)c1 [compound 42, gallic acid]	< 50
OCCc1ccc(O)c(O)c1 [hydroxytyrosol]	< 50
COc1cc([C@H]2OC[C@H]3[C@@H]2CO[C@H]3c2ccc(OC)c(OC)c2)ccc1O [phillygenin]	< 50
